We go through three molecules from PubChem BioAssay AID1745844 (Carcinogenic Potency Database (CPDB), 2022).

Structures are written as SMILES. Several values for one entry are separate records, joined by “and”; a condition that tells them apart may be missing. Equal entries are not always repeated. Activity calls are given as the source filed them. The rule behind the calls is not given here.

In general, TD50 refers to the dose at which the toxic effect under study appears in half of the subjects.

This data set deals with rodent lifetime carcinogenesis bioassay, tumor incidence TD50. Nature of the data set: chronic cancer bioassays in animals – CPDB, compiled studies (AID 1745844).
The mark [1] stands for this setting: mouse, strain A/He, females, in feed, site: liver, lesion: hepatoma, dosed 104 weeks, study length 104 weeks.
Where [2] appears, read: mouse, strain A/He, females, in feed, site: lung, lesion: one or several types, types not named, dosed 104 weeks, study length 104 weeks.
Where [3] appears, read: mouse, strain C3HfB, females, in feed, site: lung, lesion: one or several types, types not named, dosed 104 weeks, study length 104 weeks.
Where [4] appears, read: mouse, strain CFLP, females, in feed, site: liver, lesion: hepatocellular tumor, dosed 78 weeks, study length 78 weeks.

Regarding `Nc1ccc(Cl)cc1`, the carcinogen call (mouse, strain B6C3F1, females, by gavage, site: any site (literature study), lesion: several types, types named in the paper, dosed 103 weeks, study length 105 weeks) was “negative (inactive)”. Also, the TD50 reads like this: (mouse, strain B6C3F1, females, by gavage, site: liver, lesion: hepatocellular adenoma + hepatocellular carcinoma + neoplastic nodule, dosed 103 weeks, study length 105 weeks) 176 mg/kg/day; (mouse, strain B6C3F1, males, by gavage, site: all sites + liver, lesion: hemangiosarcoma + hepatocellular adenoma + hepatocellular carcinoma, dosed 103 weeks, study length 105 weeks) 56 mg/kg/day; (mouse, strain B6C3F1, males, by gavage, site: all sites, lesion: hemangiosarcoma, dosed 103 weeks, study length 105 weeks) 89.5 mg/kg/day; (mouse, strain B6C3F1, males, by gavage, site: any site (literature study), lesion: several types, types named in the paper, dosed 103 weeks, study length 105 weeks) 83.7 mg/kg/day; (mouse, strain B6C3F1, males, by gavage, site: liver, lesion: hepatocellular adenoma + hepatocellular carcinoma + neoplastic nodule, dosed 103 weeks, study length 105 weeks) 49.3 mg/kg/day; (mouse, strain B6C3F1, males, by gavage, site: liver, lesion: hepatocellular adenoma + hepatocellular carcinoma, dosed 103 weeks, study length 105 weeks) 49.3 mg/kg/day. The TD50 came to 33.8 mg/kg/day (mouse, strain B6C3F1, males, by gavage, site: liver, lesion: hepatocellular carcinoma, dosed 103 weeks, study length 105 weeks); 2780 mg/kg/day (mouse, strain B6C3F1, males, by gavage, site: lung, lesion: alveolar/bronchiolar adenoma + alveolar/bronchiolar carcinoma, dosed 103 weeks, study length 105 weeks); 105 mg/kg/day (rat, strain Fischer 344, females, by gavage, site: adrenal medulla, lesion: pheochromocytoma, benign, dosed 103 weeks, study length 105 weeks); 145 mg/kg/day (rat, strain Fischer 344, females, by gavage, site: any site (literature study), lesion: several types, types named in the paper, dosed 103 weeks, study length 105 weeks); 232 mg/kg/day (rat, strain Fischer 344, females, by gavage, site: spleen, lesion: fibrosarcoma + osteosarcoma, dosed 103 weeks, study length 105 weeks); 14.8 mg/kg/day (rat, strain Fischer 344, males, by gavage, site: adrenal medulla, lesion: pheochromocytoma benign, bilateral + pheochromocytoma, benign, dosed 103 weeks, study length 105 weeks). The TD50 (rat, strain Fischer 344, males, by gavage, site: adrenal medulla, lesion: pheochromocytoma benign, bilateral + pheochromocytoma, malignant + pheochromocytoma, benign, dosed 103 weeks, study length 105 weeks) was found to be 13.3 mg/kg/day; the TD50 (rat, strain Fischer 344, males, by gavage, site: any site (literature study), lesion: several types, types named in the paper, dosed 103 weeks, study length 105 weeks) came to 20.8 mg/kg/day; the TD50 (rat, strain Fischer 344, males, by gavage, site: spleen, lesion: fibrosarcoma + fibroma, dosed 103 weeks, study length 105 weeks) was determined as 16.9 mg/kg/day; the TD50 (rat, strain Fischer 344, males, by gavage, site: spleen, lesion: fibrosarcoma + hemangiosarcoma + osteosarcoma, dosed 103 weeks, study length 105 weeks) was 7.62 mg/kg/day; the TD50 (rat, strain Fischer 344, males, by gavage, site: spleen, lesion: fibrosarcoma + osteosarcoma, dosed 103 weeks, study length 105 weeks) turned out to be 7.9 mg/kg/day; the TD50 (rat, strain Fischer 344, males, by gavage, site: spleen, lesion: fibrosarcoma, dosed 103 weeks, study length 105 weeks) stood at 19 mg/kg/day. For the same molecule, the TD50 (rat, strain Fischer 344, males, by gavage, site: spleen, lesion: hemangiosarcoma, dosed 103 weeks, study length 105 weeks) is 107 mg/kg/day and the TD50 (rat, strain Fischer 344, males, by gavage, site: spleen, lesion: osteosarcoma, dosed 103 weeks, study length 105 weeks) was 15.5 mg/kg/day.

For the molecule `CNCc1ccc(CSCCNC(=NCC(O)c2ccc(O)cc2)NS(C)(=O)=O)o1` (configuration not stated), the carcinogen call is “negative (inactive)” (rat, strain Jcl:SD, females, by gavage, site: liver, lesion: one or several types, types not named, dosed 52 weeks, study length 52 weeks); “negative (inactive)” (rat, strain Jcl:SD, females, by gavage, site: liver, lesion: one or several types, types not named, dosed 52 weeks, study length 56 weeks); “negative (inactive)” (rat, strain Jcl:SD, males, by gavage, site: liver, lesion: one or several types, types not named, dosed 52 weeks, study length 52 weeks); “negative (inactive)” (rat, strain Jcl:SD, males, by gavage, site: liver, lesion: one or several types, types not named, dosed 52 weeks, study length 56 weeks).

As to `C#C[C@]1(O)CC[C@H]2[C@@H]3CCc4cc(OC)ccc4[C@H]3CC[C@@]21C` (tested in a mixture with another compound), the TD50 is 25.2 mg/kg/day (inactive) under setting [1]; 4.62 mg/kg/day (inactive) and 4.31 mg/kg/day (inactive) under setting [2]; 2 mg/kg/day (mouse, strain BALB/c, females, in feed, site: several sites, sites named in the paper, lesion: squamous-cell carcinoma, dosed 86 weeks, study length 86 weeks); 3.93 mg/kg/day (inactive) (mouse, strain C3HfB, females, in feed, site: all sites, lesion: fibrosarcoma, dosed 104 weeks, study length 104 weeks); 27.6 mg/kg/day (inactive) under setting [3]; 1.75 mg/kg/day and 1.82 mg/kg/day (mouse, strain C57BL/He, females, in feed, site: hypophysis, lesion: chromophobe adenoma, dosed 104 weeks, study length 104 weeks). In addition, the TD50 by setting is: (mouse, strain C57BL/He, females, in feed, site: lung, lesion: one or several types, types not named, dosed 104 weeks, study length 104 weeks) 20.7 mg/kg/day (inactive); (mouse, strain C57L/He x 129/Rr x C3HeB/De x SWR/Ly, females, by gavage, site: any site (literature study), lesion: several types, types named in the paper, dosed 69 weeks, study length 82 weeks) 0.332 mg/kg/day (inactive); (mouse, strain C57L, females, by gavage, site: pituitary gland, lesion: one or several types, types not named, dosed 89 weeks, study length 89 weeks) 0.151 mg/kg/day; under setting [4], 143 mg/kg/day (inactive); (mouse, strain Swiss Webster, females, by gavage, site: liver, lesion: hepatocellular tumor, dosed 65 weeks, study length 80 weeks) 20.8 mg/kg/day (inactive). The carcinogen call is “negative (inactive)” under setting [1]; “negative (inactive)” under setting [2]; “negative (inactive)” (mouse, strain BALB/cHe, females, in feed, site: lung, lesion: one or several types, types not named, dosed 104 weeks, study length 104 weeks); “negative (inactive)” (mouse, strain C3H/He (MTV+), females, in feed, site: liver, lesion: hepatoma, dosed 104 weeks, study length 104 weeks); “negative (inactive)” (mouse, strain C3HfB, females, in feed, site: liver, lesion: hepatoma, dosed 104 weeks, study length 104 weeks); “negative (inactive)” under setting [3]. The carcinogen call reads like this: (mouse, strain C57BL/He, females, in feed, site: liver, lesion: hepatoma, dosed 104 weeks, study length 104 weeks) “negative (inactive)”; (mouse, strain C57L/He x 129/Rr x C3HeB/De x SWR/Ly, females, by gavage, site: any site (literature study), lesion: several types, types named in the paper, dosed 69 weeks, study length 69 weeks) “negative (inactive)”; (mouse, strain C57L/He x 129/Rr x C3HeB/De x SWR/Ly, females, by gavage, site: lung, lesion: one or several types, types not named, dosed 69 weeks, study length 69 weeks) “negative (inactive)”; under setting [4], “negative (inactive)”; (mouse, strain CFLP, males, in feed, site: liver, lesion: hepatocellular tumor, dosed 78 weeks, study length 78 weeks) “negative (inactive)”.
